Test results reported in US20150283287A1, “METHODS AND COMPOSITIONS FOR WOUND HEALING” (IMBED BIOSCIENCES, INC., priority 2012, published 2015).

Columns and labels:
incisional wounds = details: in vivo; cited from earlier work
[1] = system: P. aeruginosa (ATCC 27853) biofilms; assay: Inhibition of biofilm formation (crystal violet staining); assay type: cell-based, Pseudomonas aeruginosa
Protocol: During the development of embodiments of the technology provided herein, experiments were conducted to determine the minimum concentration of Ga (e.g., as Ga(NO3)3) to inhibit biofilm formation. In particular, Ga was added to cultures of Pseudomonas aeruginosa in biofilm growth media (500 μL of 1% tryptic soy broth (TSB)) to test the inhibition of biofilm formation at the bottom of 48-well tissue culture plates.
Biofilm growth arising from suspensions of 10^6 CFU/ml P. aeruginosa (ATCC 27853) was quantified after 24, 48, and 72 hours by staining biofilms with crystal violet, following methods described previously (Brandenburg et al. Tryptophan Inhibits Biofilm Formation by Pseudomonas aeruginosa. Antimicrobial Agents and Chemotherapy. 2013; 57:1921-5).

established biofilms = details: in TSB; cited from earlier work
mammalian cells = details: cited from earlier work

CC1=C(/C=C/C(C)=C/C=C/C(C)=C/C(=O)O)C(C)(C)CCC1 [tretinoin]
Fibroblastic proliferation (incisional wounds): increased | Production of collagen (incisional wounds): diminished

O=[N+]([O-])[O-].O=[N+]([O-])[O-].O=[N+]([O-])[O-].[Ga+3] [Ga^3+, Ga(NO3)3]
Effect on free (planktonic) bacterial counts ([1]; 25 μM): not bactericidal | Concentration in solution sufficient to completely inhibit biofilm formation ([1]; 72 hours, 10^6 CFU/ml in 1% TSB): 25 µM | Concentration that disperses established biofilms (established biofilms): 100 µM | Concentrations not cytotoxic to mammalian cells (mammalian cells): up to 1 mM
